From paper PMC9405216, “Antimicrobial and Cytotoxic Cyathane-Xylosides from Cultures of the Basidiomycete Dentipellis fragilis” (Antibiotics, 2022)
Converted amounts (≈) assume the structure as drawn.

Tests used:
Format in all cases: cell-based
[1] = test system: Rhodotorula glutinis (DSM 10134); assay: Serial dilution MIC assay, Rhodotorula glutinis; details: DSM10134, serial dilution 67-0.5 µg/mL, overnight incubation, n.i. = no inhibition, read-out: MIC
Experimental: (§1) Serial dilution assays in 96-well microtiter plates were performed according to our standard protocol in order to determine the minimum inhibitory concentrations (MICs) of pure isolated compounds against different microorganisms. Essentially, aliquots of compounds 1–5 and 9 (20 µL), each with an initial concentration of 1 mg/mL, were diluted in MeOH together with the respective microorganisms to concentrations ranging between 67 µg/mL and 0.5 µg/mL in the 96-well plates, followed by overnight incubation. The MIC was then determined as the lowest concentration at which no growth of the test organism was observed. A broad spectrum of clinically approved test pathogens and sensitivity indicator strains were used in the assays (Table 4 and Table 5). Ciprofloxacin, oxytetracycline, kanamycin, and gentamycin were used as positive controls against bacterial pathogens, while nystatin was used as the positive control against fungi.

[2] = test system: Candida albicans (DSM 1665); assay: Serial dilution MIC assay, Candida albicans; details: DSM1665, serial dilution 67-0.5 µg/mL, overnight incubation, n.i. = no inhibition, read-out: MIC
Experimental: as §1

[3] = test system: Pichia anomala (DSM 6766); assay: Serial dilution MIC assay, Pichia anomala; details: Hansenula anomala, DSM6766, serial dilution 67-0.5 µg/mL, overnight incubation, n.i. = no inhibition, read-out: MIC
Experimental: as §1

[4] = test system: MCF-7 (A115) human breast adenocarcinoma; assay: MTT cytotoxicity test, MCF-7; details: MCF7, 120 h, MCF-7 human breast adenocarcinoma, five days incubation
Description: (§2) A panel of mammalian cell lines was used to determine the cytotoxicity of the compounds following a previously published protocol. The assay was initially performed using the sensitive cell lines KB3.1 (human endocervical adenocarcinoma) and L929 (mouse fibroblasts). Active compounds were further tested using the cell lines MCF-7 (human breast adenocarcinoma), PC-3 (human prostate adenocarcinoma), SKOV-3 (ovarian carcinoma), A549 (human lung carcinoma), and A431 (human squamous cell carcinomas) (Table 6). The cell lines A549, KB 3.1, and L929 were cultured in DMEM (Gibco, provided by Thermo Fisher Scientific), PC-3 in F12-K (Gibco) and MC-7, and SKOV-3 and A431 in RPMI (Gibco). With the exception of A549, all cell lines were supplemented with 10% bovine serum (Gibco). All cell lines were cultured at 37 °C. The L929 and KB 3.1 cell lines were cultivated under an atmosphere of 10% (v/v) carbon dioxide. Cytotoxicity tests were then carried out using MTT (3-(4,5-dimethylthiazol-2-yl)-2,5-diphenyltetrazolium bromide) in 96-well microtiter plates. Serial dilutions of the compounds (60 µL aliquots, each with an initial concentration of 1 mg/mL) were added into 120 µL aliquots of cell suspension (50000 cells/mL) in the 96-well plates. These were incubated for five days, after which an MTT assay was performed. The absorbance was taken at 590 nm using an Elisa plate reader (Victor, Überlingen, Germany). The half-maximal inhibitory concentration (IC50), the concentration at which cell growth inhibition was 50% of the control, was calculated as described elsewhere.

[5] = test system: L929 (ACC2) mouse fibroblasts; assay: MTT cytotoxicity test, L929; details: 120 h, five days incubation, n.c. = no cytotoxicity, read-out: IC50
Description: as §2

[6] = test system: SKOV-3 (ovarian carcinoma); assay: MTT cytotoxicity test, SKOV-3; details: Homo sapiens, SK-OV-3, 120 h, five days incubation
Description: as §2

[7] = test system: Mycolicibacterium smegmatis (ATCC 700084); assay: Serial dilution MIC assay, Mycolicibacterium smegmatis; details: ATCC700084, serial dilution 67-0.5 µg/mL, overnight incubation, n.i. = no inhibition, read-out: MIC
Experimental: as §1

[8] = test system: Pseudomonas aeruginosa (DSM PA14); assay: Serial dilution MIC assay, Pseudomonas aeruginosa; details: serial dilution 67-0.5 µg/mL, overnight incubation, n.i. = no inhibition
Experimental: as §1

[9] = test system: Bacillus subtilis (DSM 10); assay: Serial dilution MIC assay, Bacillus subtilis; details: DSM10, serial dilution 67-0.5 µg/mL, overnight incubation, n.i. = no inhibition, read-out: MIC
Experimental: as §1

[10] = test system: A431 (ACC91) human squamous cell carcinomas; assay: MTT cytotoxicity test, A431; details: A-431, 120 h, five days incubation
Description: as §2

[11] = test system: PC-3 (ACC465) human prostate adenocarcinoma; assay: MTT cytotoxicity test, PC-3; details: 120 h, PC-3 human prostate adenocarcinoma, five days incubation
Description: as §2

[12] = test system: Actinobacter baumannii (DSM 30008); assay: Serial dilution MIC assay, Actinobacter baumannii; details: serial dilution 67-0.5 µg/mL, overnight incubation, n.i. = no inhibition, read-out: MIC
Experimental: as §1

[13] = test system: A549 (ACC107) human lung carcinoma; assay: MTT cytotoxicity test, A549; details: Homo sapiens, 120 h, five days incubation
Description: as §2

[14] = test system: Staphylococcus aureus (DSM 346); assay: Serial dilution MIC assay, Staphylococcus aureus; details: DSM346, serial dilution 67-0.5 µg/mL, overnight incubation, n.i. = no inhibition, read-out: MIC
Experimental: as §1

[15] = test system: tested microorganisms (bacteria and fungi); assay: Serial dilution MIC assays, whole panel of tested strains; details: range over most tested bacterial and fungal strains; read-out: minimum inhibitory concentrations (MICs) against most tested strains
Experimental: as §1

[16] = test system: KB3.1 (ACC158) human endocervical adenocarcinoma; assay: MTT cytotoxicity test, KB3.1; details: KB 3-1, 120 h, KB3.1 human endocervical adenocarcinoma, five days incubation, n.c. = no cytotoxicity, read-out: IC50
Description: as §2

[17] = test system: other cell lines (MCF-7, A549, PC-3, SKOV-3, A431); assay: MTT cytotoxicity test, other cell lines of the panel; details: range over the cell lines other than L929 and KB3.1 (Table 6)
Description: as §2, with “These were incubated for five days, after which an MTT assay was performed.” left out, “The half-maximal inhibitory concentration (IC50), the concentration at which cell growth inhibition was 50% of the control, was calculated as described elsewhere.” left out

[18] = test system: Mucor hiemalis (DSM 2656); assay: Serial dilution MIC assay, Mucor hiemalis; details: DSM2656, serial dilution 67-0.5 µg/mL, overnight incubation, n.i. = no inhibition, read-out: MIC
Experimental: as §1

[19] = test system: Schizosaccharomyces pombe (DSM 70572); assay: Serial dilution MIC assay, Schizosaccharomyces pombe; details: DSM70572, serial dilution 67-0.5 µg/mL, overnight incubation, n.i. = no inhibition, read-out: MIC
Experimental: as §1

[20] = test system: Chromobacterium violaceum (DSM 30191); assay: Serial dilution MIC assay, Chromobacterium violaceum; details: DSM30191, serial dilution 67-0.5 µg/mL, overnight incubation, n.i. = no inhibition, read-out: MIC
Experimental: as §1

[21] = test system: Escherichia coli (DSM 1116); assay: Serial dilution MIC assay, Escherichia coli; details: DSM1116, serial dilution 67-0.5 µg/mL, overnight incubation, n.i. = no inhibition, read-out: MIC
Experimental: as §1

CC(C)C1=C2[C@H]3CC=C(C=O)[C@@H]4[C@H](O[C@@H]5OC[C@@H](O)C(=O)[C@@]54O)[C@]3(C)CC[C@@]2(C)CC1 [Compound 9, striatal D]
MIC [1]: 1 µg/mL (≈ 2.32 µM) | MIC [2]: 33.3 µg/mL (≈ 77.3 µM) | MIC [3]: 33.3 µg/mL (≈ 77.3 µM) | IC50 [4]: 0.1 µM | IC50 [5]: 0.8 µM | IC50 [6]: 0.1 µM | MIC [7]: 33.3 µg/mL (≈ 77.3 µM) | MIC [8]: n.i. | MIC [9]: 1 µg/mL (≈ 2.32 µM) | IC50 [10]: 1 µM | IC50 [11]: 0.4 µM | MIC [12]: 66.6 µg/mL (≈ 155 µM) | IC50 [13]: 0.1 µM | MIC [14]: 2.1 µg/mL (≈ 4.88 µM) | MIC [15]: 1 to 66.6 µg/mL (≈ 2.32 to 155 µM) | IC50 [16]: 0.4 µM | IC50 [17]: 0.1 to 1 µM | MIC [18]: 2.1 µg/mL (≈ 4.88 µM) | MIC [19]: 4.2 µg/mL (≈ 9.76 µM) | MIC [20]: 16.6 µg/mL (≈ 38.6 µM) | MIC [21]: 66.6 µg/mL (≈ 155 µM)
